{
  "source": "patent EP0597004B1",
  "about": "“THE USE OF DIOXAPYRROLOMYCIN AS AN ANTIPARASITIC AGENT AND COMPOSITIONS USEFUL THEREFOR” (PHARMACIA & UPJOHN COMPANY, priority 1991, dated 1993)",
  "key": {"[1]": {"test_system": "levamisole/benzimidazole-resistant Haemonchus contortus", "test": "Jird assay with levamisole/benzimidazole-resistant strain (cross-resistance)", "type": "in vivo", "conditions": "jirds, necropsy day 13 PI", "text": "(§1) Having shown potent activity against H. contortus in sheep, dioxapyrrolomycin was examined for cross-resistance to the three major classes of broad-spectrum anthelmintics (ivermectin, levamisole, and benzimidazoles) using jirds infected with resistant strains of H. contortus. […] In vitro, the dioxapyrrolomycin dose required to affect a closantel-resistant strain of H. contortus is approximately seventeen times that required for the susceptible strain.\n(§2) This in vivo assay utilizes jirds infected with two important target parasites of ruminants, H. contortus and T. colubriformis (anthelmintic-sensitive or -resistant worms can be used). Initially, activity is assessed only against H. contortus as described in G.A. Conder et. al., J. Parasitol. 76:168-170 (1990), while follow-up studies examine activity against both species of parasites using the techniques outlined in G.A. Conder et al., J. Parsitol. 77:168-170 (1991)."}, "[2]": {"test_system": "Haemonchus contortus", "test": "Haemonchus contortus / jird assay (clearance from experimentally infected jirds)", "type": "in vivo", "conditions": "necropsy day 13 PI; for Percentage Clearance Susceptible: susceptible strain; for Percentage Clearance H. contortus: purity ∼100%", "protocol": "as §2"}, "[3]": {"conditions": "mice, cited from earlier work"}, "[4]": {"test_system": "Caenorhabditis elegans", "test": "Caenorhabditis elegans in vitro assay", "conditions": "free-living nematode", "text": "The free-living nematode C. elegans in vitro assay has been described extensively in the literature, for example, K.G. Simpkin and G.C. Coles, J. Chem. Tech. Biotechnol., 31:66-69 (1981).\nDioxapyrrolomycin is active in the C. elegans assay at 0.825 ppm."}, "[5]": {"test_system": "ivermectin-resistant Haemonchus contortus", "test": "Jird assay with ivermectin-resistant strain (cross-resistance)", "type": "in vivo", "conditions": "jirds, necropsy day 13 PI", "text": "as §1, §2"}, "[6]": {"test_system": "closantel-resistant strain of H. contortus", "test": "In vitro cross-resistance with closantel-resistant strain", "parameters": "species or system Haemonchus contortus", "conditions": "closantel-resistant vs susceptible H. contortus", "text": "as §1"}, "[7]": {"test_system": "Trichostrongylus colubriformis", "test": "Trichostrongylus colubriformis / jird assay (clearance from experimentally infected jirds)", "type": "in vivo", "conditions": "necropsy day 13 PI, purity ∼100%", "protocol": "as §2"}, "[8]": {"test_system": "Haemonchus contortus", "test": "Haemonchus contortus / sheep assay (clearance from monospecifically infected lambs)", "type": "in vivo", "conditions": "necropsy day 42 PI", "protocol": "Purpose bred, helminth-free lambs are procured. Upon arrival, the lambs are treated with ivermectin (0.2 mg/kg, subcutaneously), vaccinated for sore mouth, and placed in a single, community pen. Three weeks later each lamb is treated with levamisole hydrochloride (8.0 mg/kg per os). Two weeks after treatment with levamisole, all lambs are inoculated per os with ∼ 7,500 infective larvae of H. contortus. Rectal fecal samples are taken from each lamb 1 to 3 days prior to infection and these are examined using the double centrifugation technique to verify that the animals are free of trichostrongyles prior to infection. […] Remaining lambs are treated per os on day 35 PI; 4-5 animals receive vehicle only. Prior to administration, test materials are prepared in a manner suitable for the substance being examined. All lambs are monitored for toxic signs following treatment. Lambs are killed 7 days after treatment (day 42 PI), and the abomasum is ligated and removed from each animal. Each abomasum is opened longitudinally and the contents rinsed into an 80 mesh sieve. Sieve contents are collected in individual containers and fixed in formol-alcohol. Later each sample is transferred to a 1,000 ml graduated cylinder and the volume brought to 400 - 1000 ml with tap water. The total number of worms in a 10% aliquot is determined. If no worms are found in the 10% aliquot, the entire sample is examined. Total worm number/lamb and percentage clearance for each treatment are calculated. Percentage clearance is determined according to the following formula: Percentage clearance = [(Mean number of worms recovered from vehicle control lambs - number of worms recovered from treated lamb)/mean number of worms recovered from vehicle control lambs] x 100."}, "[9]": {"conditions": "0.11 mg/jird per os day 10 PI, purity 95%"}, "[10]": {"conditions": "0.012 mg/jird per os on day 10 PI"}, "[11]": {"conditions": "0.11 mg/jird per os on day 10 PI"}},
  "note": "Values joined by “and” are separate entries in the source; they are usually repeats but may differ in a detail not shown here. Identical values can stand only once. Counter-ions that a name gives are not always drawn. Like-named read-outs stand apart in the source and are kept apart here.",
  "data": [
    {"molecule": "CCCSc1ccc2nc(NC(=O)OC)[nH]c2c1", "note": "[Albendazole, reference compound]", "values": [
      {"measurement": "Percentage Clearance Levamisole/Benzimidazole Resistant", "setting": "[1]; 0.075 mg/jird per os day 10 PI", "result": 36.2, "unit": "%"},
      {"measurement": "Percentage Clearance Susceptible", "setting": "[2]; 0.075 mg/jird per os day 10 PI", "result": "∼95.0%"}
    ]},
    {"molecule": "O=[N+]([O-])c1c([C@H]2OCOc3c(Cl)cc(Cl)cc32)[nH]c(Cl)c1Cl", "note": "[Dioxapyrrolomycin, dioxapyrrolomycin]", "values": [
      {"measurement": "LD50", "setting": "[3]; ip", "result": "125 to 250", "unit": "mg/kg"},
      {"measurement": "LD50", "setting": "[3]; po", "result": 13, "unit": "mg/kg"},
      {"measurement": "Percentage Clearance Levamisole/Benzimidazole Resistant", "setting": "[1]; [9]", "result": 98.6, "unit": "%"},
      {"measurement": "active in the C. elegans in vitro assay at", "setting": "[4]", "result": 0.825, "unit": "ppm"},
      {"measurement": "Percentage Clearance Ivermectin Resistant", "setting": "[5]; [9]", "result": 92.7, "unit": "%"},
      {"measurement": "dose required to affect a closantel-resistant strain relative to that required for the susceptible strain", "setting": "[6]", "result": "approximately seventeen"},
      {"measurement": "Percentage Clearance H. contortus", "setting": "[2]; [10]", "result": 45.8, "unit": "%"},
      {"measurement": "Percentage Clearance H. contortus", "setting": "[2]; 0.037 mg/jird (= 0.925 mg/kg) per os on day 10 PI", "result": 96.4, "unit": "%"},
      {"measurement": "Percentage Clearance H. contortus", "setting": "[2]; [11]", "result": 100, "unit": "%"},
      {"measurement": "Percentage Clearance Susceptible", "setting": "[2]; [9]", "result": 95.8, "unit": "%"},
      {"measurement": "Percentage Clearance T. colubriformis", "setting": "[7]; [10]", "result": 48.8, "unit": "%"},
      {"measurement": "Percentage Clearance T. colubriformis", "setting": "[7]; 0.037 mg/jird per os on day 10 PI", "result": 17.2, "unit": "%"},
      {"measurement": "Percentage Clearance T. colubriformis", "setting": "[7]; [11]", "result": 0, "unit": "%"},
      {"measurement": "Percentage Clearance T. colubriformis", "setting": "[7]; 0.33 mg/jird (= 8.25 mg/kg) per os on day 10 PI", "result": 41.5, "unit": "%"},
      {"measurement": "Percentage Clearance", "setting": "[8]; 0.78 mg/kg per os on day 35 PI", "result": 44.0, "unit": "%"},
      {"measurement": "Percentage Clearance", "setting": "[8]; 1.56 mg/kg per os on day 35 PI", "result": 92.2, "unit": "%"},
      {"measurement": "Percentage Clearance", "setting": "[8]; 3.125 mg/kg per os on day 35 PI, 3.125 mg/kg", "result": "99.7% and 99.9%"},
      {"measurement": "Percentage Clearance", "setting": "[8]; 6.25 mg/kg per os on day 35 PI", "result": 99.9, "unit": "%"},
      {"measurement": "Percentage Clearance", "setting": "[8]; 12.5 mg/kg per os on day 35 PI", "result": 100, "unit": "%"}
    ]},
    {"molecule": "c1ccc([C@H]2CN3CCSC3=N2)cc1", "note": "[Levamisole hydrochloride]", "values": [
      {"measurement": "Percentage Clearance Levamisole/Benzimidazole Resistant", "setting": "[1]; 0.4 mg/jird per os day 10 PI", "result": 51.7, "unit": "%"},
      {"measurement": "Percentage Clearance Ivermectin Resistant", "setting": "[5]; 0.4 mg/jird per os day 10 PI", "result": 96.4, "unit": "%"},
      {"measurement": "Percentage Clearance Susceptible", "setting": "[2]; 0.4 mg/jird per os day 10 PI", "result": "∼95.0%"}
    ]},
    {"molecule": "Ivermectin", "values": [
      {"measurement": "Percentage Clearance Levamisole/Benzimidazole Resistant", "setting": "[1]; 0.005 mg/jird per os day 10 PI", "result": 98.6, "unit": "%"},
      {"measurement": "Percentage Clearance Ivermectin Resistant", "setting": "[5]; 0.005 mg/jird per os day 10 PI", "result": 18.7, "unit": "%"},
      {"measurement": "Percentage Clearance Susceptible", "setting": "[2]; 0.005 mg/jird per os day 10 PI", "result": "∼95.0%"}
    ]}
  ]
}
